Laboratory results: patent US6403637B1, “Methods of modulating matrix metalloproteinase activity and uses thereof” (priority 1999, dated 2002)

Assays:
human chondrocytes [1] = test: Excretion of degraded (TCA-soluble) 125I-collagenase-3 from human chondrocytes; type: cell-based
Procedure: (§1) Excretion of degraded matrix metalloproteinase is preferably evaluated by performing steps (a) through (e) of the internalization assay described above, collecting the media overlying the cells after incubating for 15 min to I hr, precipitating intact proteins from the collected media (e.g., incubating for 2 hr with 20% trichloroacetic acid in ethanol and 2% bovine serum albumin), pelleting the precipitated intact proteins, and measuring the label in the supernatant (e.g., by gamma counting ^125I).
(§2) Human tissue (articular cartilage and synovium) was obtained at surgery or autopsy and was prepared as follows. Tissue was minced in a laminar flow hood, then incubated in sterile filtered serum-free Dulbecco's modified Eagle's medium (50 ml) containing trypsin (0.25%) for 1 h at 37° C. on an orbital shaker. […]
(§3) As receptor-mediated processing of collagenase-3 culminates in lysosomal degradation and extracellular release of the ligand, binding and degradation assays as above were performed and measured the presence of degraded (TCA-soluble) ^125I-collagenase-3 in the media overlying cells. […]

human chondrocytes [2] = test: Binding of 125I collagenase-3 to human chondrocytes; details: osteoarthritis chondrocytes, 10 μM b.i.d. for three days; p<0.05
Procedure: (§4) For all binding experiments, cells were seeded into 2.0 cm^2 wells. After the cells reached approximately 95% confluence, the medium was replaced with fresh medium containing 1 mg/ml BSA and the cells were assayed for binding 4 h later. The cells were first washed with maintenance medium, then incubated in the same medium with 0.01% Tween 80 containing ^125I-rat collagenase-3 or other iodinated ligands at 4° C. for 2 h. Non-specific binding was assessed by adding a 50-100-fold excess of cold ligand to half the wells, while an equivalent volume of buffer was added to the remaining wells. After incubation, the wells were washed three times with ice-cold MEM (0.5 ml). The cells were then lysed with 500 μl of 1 M NaOH and the lysates were counted on a gamma counter. Protein labeling with ^125I was done using the chloramine T method (Greenwood et al., 1963, Biochem. J. 89:114). The proteins had specific activities ranging from 9 to 27 μCi/μg.
as §2

UMR 106-01 cells [3] = test: Internalization assay in UMR 106-01 cells; type: cell-based, rat; set-up: reduction of intracellular accumulation of 125I-collagenase: dose or concentration left out as unconfirmed
Procedure: (§5) Although the low density lipoprotein receptor-related protein is not required for rat collagenase-3 binding to the cell, it might be required for ligand internalization. Therefore, internalization assays were performed with ^125I-rat collagenase-3 using MEF-1 and MEF-2 cells as follows. After binding 125I-rat labeled proteins as above, the cells were washed three times with cold modified Eagle's media (0.5 ml) to remove unbound ligand. The cells were then warmed to 37° C. by the addition of prewarmed modified Eagle's media (0.25 ml), and incubated at 37° C. for selected intervals. At each time point, the media were collected, and the cells were washed once with ice-cold MEM, then incubated with 0.25% Pronase®-E in modified Eagle's media for 15 min at 4° C. to strip cell surface proteins. The cell suspension was then centrifuged, and the radioactivity associated with cell pellets (defining internalized ^125I-proteins) was measured at each time point.
It is known that RAP inhibits internalization of ligands by the low density lipoprotein receptor-related protein (Kounnas et al., 1996, J. Biol. Chem 271:6523). Therefore, internalization assays were performed using ^125I-labeled rat collagenase-3 as a ligand and receptor-associated protein as a competitor. Human receptor-associated protein from the pGEX-receptor-associated protein expression vector (provided by Dr. Joachim Herz, University of Texas Southwestern Medical Center, Dallas, Tex.) was expressed in bacteria and prepared as described in Herz et al., 1991, J. Biol. Chem. 266:21232.
To investigate the mechanism by which RAP regulates internalization of collagenase-3, an experiment was performed where excess unlabeled RAP or rat collagenase-3 was prebound to UMR 106-01 cells. Binding and internalization of ^125I-labeled rat collagenase-3 and RAP were then allowed to proceed.

normal rat osteoblasts = test: Internalization of 125I-rat collagenase-3 in normal rat osteoblasts; type: cell-based; set-up: reduction of intracellular accumulation of 125I-collagenase: dose or concentration left out as unconfirmed
Procedure: Previous work has shown that the rat collagenase-3 endocytosis receptor system is present on UMR 106-01 rat osteosarcoma cells (Omura et al, 1994, J. Biol. Chem. 269:24994). To determine whether the receptor is present in other cells, several cell types were tested for their ability to bind rat collagenase-3. These cell types were normal rat osteoblasts, rat embryo fibroblasts, the rat epithelial breast carcinoma cell line BC-1, mouse NIH 3T3 fibroblasts, the human osteosarcoma cell line SAOS-2, and the rat osteosarcoma cell lines ROS 17/2.8 and UMR 106-01. The human osteosarcoma cell line SAOS-2 (ATCC HTB 85) and the mouse embryo fibroblast cell line NIH 3T3 (ATCC CRL 1658) were cultured according to recommendations of the American Type Culture Collection, Rockville, Md. UMR 106-01 rat osteosarcoma cells were cultured as described in Roswit et al., 1992, Arch. Biochem. Biophys. […]
Although the low density lipoprotein receptor-related protein is not required for rat collagenase-3 binding to the cell, it might be required for ligand internalization. […] The cell suspension was then centrifuged, and the radioactivity associated with cell pellets (defining internalized ^125I-proteins) was measured at each time point.
The ability of receptor-associated protein to inhibit internalization of ^125I-rat collagenase-3 in UMR 106-01 osteoblastic cells and normal rat osteoblasts was determined next. […]

human synoviocytes = test: Excretion of degraded (TCA-soluble) 125I-collagenase-3 from human synoviocytes; type: cell-based
Procedure: as §1, §2, §3

synoviocytes = test: Internalization of 125I collagenase-3 by human synoviocytes; type: cell-based; details: compared to chondrocytes
Procedure: as §5, §2

human chondrocytes [4] = test: Internalization of 125I collagenase-3 by human chondrocytes; type: cell-based; details: p<0.001
Procedure: as §5
Human tissue (articular cartilage and synovium) was obtained at surgery or autopsy and was prepared as follows. […]
To determine whether the decreased collagenase-3 binding in osteoarthritis tissues correlated with reduced receptor function, the amount of ^125I collagenase which was internalized by osteoarthritis and control chondrocytes was determined as described in Example 1. […]

UMR 106-01 cells [5] = test: Competition for 125I collagenase-3 binding in UMR 106-01 cells; set-up: species or system rat; details: 125I-rat collagenase-3
Procedure: as §4
These proteins were used as competitors in a series of binding assays in UMR cells using ^125I mouse collagenase-3. Radioactive labeling and binding assays were performed as in Example 1.

[6] = 3 nM 125I-rat collagenase-3 + 100 nM RAP, mean ± SEM, triplicate

Compound | enhancement of excretion of degraded collagenase-3 (human chondrocytes [1]; osteoarthritis chondrocytes, 10 μM b.i.d. for three days, p<0.02) | increase in collagenase-3 binding (human chondrocytes [2]) [%] | % of maximum internalization, UMR 106-01 rat osteoblasts (UMR 106-01 cells [3]; [6]) [%] | inhibition of internalization of 125I-rat collagenase-3 (UMR 106-01 cells [3]; FIG. 10, increasing concentrations of RAP) | effect of prebound excess unlabeled protein on rat collagenase-3 internalization (UMR 106-01 cells [3]; prebound to cells) | reduction of intracellular accumulation of 125I-collagenase (UMR 106-01 cells [3]; receptor-associated protein in binding medium) [%] | % of maximum internalization, Normal rat osteoblasts (normal rat osteoblasts; [6]) [%] | reduction of intracellular accumulation of 125I-collagenase (normal rat osteoblasts; receptor-associated protein in binding medium, normal mineralizing rat osteoblasts) [%] | effect on excretion of collagenase-3 (in words) (human synoviocytes) | inhibition of collagenase-3 internalization (in words) (synoviocytes) | effect on excretion of collagenase-3 (in words) (human chondrocytes [1]; chondrocytes) | inhibition of collagenase-3 internalization (human chondrocytes [4]; control chondrocytes) [%] | reduction of collagenase-3 internalization (human chondrocytes [4]; osteoarthritis chondrocytes) [%] | competition with / inhibition of 125I-rat collagenase-3 binding (in words) (UMR 106-01 cells [5])
CC[C@H](C)C(=O)O[C@H]1C[C@H](O)C=C2C=C[C@H](C)[C@H](CC[C@@H](O)C[C@@H](O)CC(=O)[O-])[C@H]21.[Na+] [pravastatin, Pravastatin sodium] | over 320% | 30 | – | – | – | – | – | – | – | – | – | – | – | –
RAP: human receptor-associated protein expressed in bacteria from the pGEX expression vector; inhibits ligand internalization by LRP | – | – | 20.84 ± 1.98 | approximately 70% | inhibited | 79 | 56.99 ± 4.49 | 43 | inhibited | similar | inhibited | 88.2 | 74.3 | does not inhibit
